Laboratory results as given in ChEMBL document CHEMBL3132769, “Fragment growing to retain or alter the selectivity of anchored kinase hinge-binding fragments” (Medchemcomm, 2014).

Columns and labels:
[1] = target: Serine/threonine-protein kinase MARK1 (Homo sapiens) (UniProt Q9P0L2); experiment: Inhibition of human full length MARK1 expressed in baculovirus assessed as substrate phosphorylation using fluorescence-labelled peptides as substrate at 9 uM after 90 mins by microfluidic peptide phosphorylation assay
[2] = target: T1, Serine/threonine-protein kinase D3 (Homo sapiens) (UniProt O94806); experiment: Inhibition of human full length PKD3 expressed in baculovirus assessed as substrate phosphorylation using fluorescence-labelled peptides as substrate at 0.06 uM after 90 mins by microfluidic peptide phosphorylation assay
T1 sequence (whole entry): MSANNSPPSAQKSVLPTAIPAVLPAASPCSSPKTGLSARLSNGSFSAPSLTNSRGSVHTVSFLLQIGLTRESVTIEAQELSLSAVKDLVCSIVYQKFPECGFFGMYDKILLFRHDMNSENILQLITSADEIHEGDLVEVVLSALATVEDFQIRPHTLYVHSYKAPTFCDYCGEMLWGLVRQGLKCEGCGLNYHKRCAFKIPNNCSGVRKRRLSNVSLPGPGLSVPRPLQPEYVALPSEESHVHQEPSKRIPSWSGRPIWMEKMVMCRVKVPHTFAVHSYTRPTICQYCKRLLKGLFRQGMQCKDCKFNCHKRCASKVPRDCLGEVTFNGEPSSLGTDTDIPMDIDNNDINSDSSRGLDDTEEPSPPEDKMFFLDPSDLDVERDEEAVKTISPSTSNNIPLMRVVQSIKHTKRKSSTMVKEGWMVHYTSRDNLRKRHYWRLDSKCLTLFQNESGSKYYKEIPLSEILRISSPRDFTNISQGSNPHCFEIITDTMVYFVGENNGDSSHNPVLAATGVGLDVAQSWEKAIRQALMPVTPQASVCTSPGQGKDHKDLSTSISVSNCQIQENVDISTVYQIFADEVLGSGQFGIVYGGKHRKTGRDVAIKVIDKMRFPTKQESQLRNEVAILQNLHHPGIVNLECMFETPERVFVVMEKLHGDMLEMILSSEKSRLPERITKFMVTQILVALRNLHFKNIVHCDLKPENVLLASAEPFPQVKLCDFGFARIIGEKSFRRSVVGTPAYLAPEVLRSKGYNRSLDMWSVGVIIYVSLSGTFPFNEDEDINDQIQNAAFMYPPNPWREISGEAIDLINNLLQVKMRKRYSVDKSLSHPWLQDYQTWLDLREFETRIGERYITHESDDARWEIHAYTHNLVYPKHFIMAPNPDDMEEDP

[3] = target: T2, Interleukin-1 receptor-associated kinase 4 (Homo sapiens) (UniProt Q9NWZ3); experiment: Inhibition of human IRAK4 catalytic domain expressed in baculovirus assessed as substrate phosphorylation using fluorescence-labelled peptides as substrate at 0.1 uM after 90 mins by microfluidic peptide phosphorylation assay
T2 sequence (whole entry): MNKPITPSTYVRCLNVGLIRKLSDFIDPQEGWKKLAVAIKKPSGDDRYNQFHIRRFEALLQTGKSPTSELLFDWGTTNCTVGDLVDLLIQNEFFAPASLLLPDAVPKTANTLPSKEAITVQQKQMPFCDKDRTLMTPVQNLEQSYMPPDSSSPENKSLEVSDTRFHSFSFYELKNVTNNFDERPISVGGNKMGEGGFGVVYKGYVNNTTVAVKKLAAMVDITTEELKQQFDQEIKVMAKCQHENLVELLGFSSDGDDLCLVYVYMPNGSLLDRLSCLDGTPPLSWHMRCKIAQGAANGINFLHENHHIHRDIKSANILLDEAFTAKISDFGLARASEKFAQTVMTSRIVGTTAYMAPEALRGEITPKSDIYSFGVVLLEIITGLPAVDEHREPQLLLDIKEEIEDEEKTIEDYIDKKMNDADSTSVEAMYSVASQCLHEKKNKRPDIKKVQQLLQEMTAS

[4] = target: T3, Serine/threonine-protein kinase D2 (Homo sapiens) (UniProt Q9BZL6); experiment: Inhibition of human full length PKD2 expressed in baculovirus assessed as substrate phosphorylation using fluorescence-labelled peptides as substrate at 420 uM after 90 mins by microfluidic peptide phosphorylation assay
T3 sequence (whole entry): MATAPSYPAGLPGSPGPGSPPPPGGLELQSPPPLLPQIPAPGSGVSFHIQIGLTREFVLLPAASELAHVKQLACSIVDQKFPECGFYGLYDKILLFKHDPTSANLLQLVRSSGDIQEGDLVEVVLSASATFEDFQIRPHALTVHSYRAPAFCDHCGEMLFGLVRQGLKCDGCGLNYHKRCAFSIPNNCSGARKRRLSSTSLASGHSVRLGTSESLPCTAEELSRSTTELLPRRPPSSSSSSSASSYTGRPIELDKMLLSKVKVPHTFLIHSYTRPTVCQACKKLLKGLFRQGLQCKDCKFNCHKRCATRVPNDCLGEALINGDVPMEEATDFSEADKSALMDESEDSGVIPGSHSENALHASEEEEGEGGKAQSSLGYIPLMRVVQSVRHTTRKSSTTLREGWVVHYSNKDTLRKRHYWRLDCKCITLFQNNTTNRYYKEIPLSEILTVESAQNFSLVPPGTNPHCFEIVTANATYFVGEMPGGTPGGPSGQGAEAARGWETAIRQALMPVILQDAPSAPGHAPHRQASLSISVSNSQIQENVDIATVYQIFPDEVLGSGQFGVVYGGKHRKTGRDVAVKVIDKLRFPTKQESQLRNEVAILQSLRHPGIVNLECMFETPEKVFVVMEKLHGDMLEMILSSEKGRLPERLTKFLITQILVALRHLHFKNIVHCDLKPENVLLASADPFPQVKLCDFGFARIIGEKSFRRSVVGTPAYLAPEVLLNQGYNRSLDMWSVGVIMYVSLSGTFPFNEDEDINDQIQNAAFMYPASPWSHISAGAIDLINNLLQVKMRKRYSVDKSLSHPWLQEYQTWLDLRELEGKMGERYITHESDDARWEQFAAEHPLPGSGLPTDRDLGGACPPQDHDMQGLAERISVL

[5] = target: T4, Mitogen-activated protein kinase 12 (Homo sapiens) (UniProt P53778); experiment: Inhibition of human full length p38 gamma expressed in Escherichia coli cell assessed as substrate phosphorylation using fluorescence-labelled peptides as substrate at 1000 uM after 90 mins by microfluidic peptide phosphorylation assay
T4 sequence (whole entry): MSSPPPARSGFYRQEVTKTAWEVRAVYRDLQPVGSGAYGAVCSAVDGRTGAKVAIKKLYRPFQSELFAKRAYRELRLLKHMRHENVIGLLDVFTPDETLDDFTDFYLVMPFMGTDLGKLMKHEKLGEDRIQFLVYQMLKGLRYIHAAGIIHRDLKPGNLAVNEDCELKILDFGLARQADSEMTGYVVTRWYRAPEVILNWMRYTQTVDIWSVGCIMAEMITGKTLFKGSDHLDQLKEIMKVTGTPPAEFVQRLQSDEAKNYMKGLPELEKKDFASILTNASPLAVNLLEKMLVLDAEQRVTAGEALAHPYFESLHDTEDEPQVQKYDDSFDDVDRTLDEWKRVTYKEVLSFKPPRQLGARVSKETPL

[6] = target: Epidermal growth factor receptor (Homo sapiens) (UniProt P00533); experiment: Inhibition of human EGFR catalytic domain expressed in baculovirus assessed as substrate phosphorylation using fluorescence-labelled peptides as substrate at 1000 uM after 90 mins by microfluidic peptide phosphorylation assay
Epidermal growth factor receptor (Homo sapiens), sequence (P00533 whole entry, the tested form may be a part): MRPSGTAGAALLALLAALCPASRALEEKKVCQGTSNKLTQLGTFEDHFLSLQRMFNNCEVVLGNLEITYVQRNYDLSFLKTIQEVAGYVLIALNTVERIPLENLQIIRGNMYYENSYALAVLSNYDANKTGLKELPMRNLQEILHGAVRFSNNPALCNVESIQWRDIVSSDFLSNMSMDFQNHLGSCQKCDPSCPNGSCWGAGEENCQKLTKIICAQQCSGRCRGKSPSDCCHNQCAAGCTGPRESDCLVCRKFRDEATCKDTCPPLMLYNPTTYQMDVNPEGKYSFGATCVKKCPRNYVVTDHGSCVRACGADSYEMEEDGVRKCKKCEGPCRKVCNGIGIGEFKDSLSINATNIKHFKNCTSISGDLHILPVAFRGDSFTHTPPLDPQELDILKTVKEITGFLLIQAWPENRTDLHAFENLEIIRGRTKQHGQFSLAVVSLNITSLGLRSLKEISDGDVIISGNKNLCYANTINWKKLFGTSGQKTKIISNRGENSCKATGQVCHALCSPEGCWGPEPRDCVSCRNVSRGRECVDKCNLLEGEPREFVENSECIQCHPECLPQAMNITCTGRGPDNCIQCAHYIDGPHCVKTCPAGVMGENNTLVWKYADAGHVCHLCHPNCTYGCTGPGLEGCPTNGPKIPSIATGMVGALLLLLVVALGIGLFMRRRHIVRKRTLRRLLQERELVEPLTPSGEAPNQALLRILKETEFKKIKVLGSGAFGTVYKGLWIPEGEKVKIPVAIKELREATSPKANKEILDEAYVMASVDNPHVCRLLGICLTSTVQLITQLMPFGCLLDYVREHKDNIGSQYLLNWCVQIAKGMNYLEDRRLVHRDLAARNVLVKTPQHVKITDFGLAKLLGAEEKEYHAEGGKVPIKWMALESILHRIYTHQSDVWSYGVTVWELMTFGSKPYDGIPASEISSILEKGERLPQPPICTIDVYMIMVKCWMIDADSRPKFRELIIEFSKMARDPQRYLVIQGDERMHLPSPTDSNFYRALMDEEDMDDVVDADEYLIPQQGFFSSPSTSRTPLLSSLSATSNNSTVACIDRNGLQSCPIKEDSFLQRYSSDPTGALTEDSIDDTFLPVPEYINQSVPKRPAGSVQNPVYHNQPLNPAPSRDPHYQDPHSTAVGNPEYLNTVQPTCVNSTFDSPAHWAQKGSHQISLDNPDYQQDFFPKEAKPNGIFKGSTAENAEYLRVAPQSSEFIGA

Serine/threonine-protein kinase MARK1 (Homo sapiens), sequence (Q9P0L2 whole entry, looked up): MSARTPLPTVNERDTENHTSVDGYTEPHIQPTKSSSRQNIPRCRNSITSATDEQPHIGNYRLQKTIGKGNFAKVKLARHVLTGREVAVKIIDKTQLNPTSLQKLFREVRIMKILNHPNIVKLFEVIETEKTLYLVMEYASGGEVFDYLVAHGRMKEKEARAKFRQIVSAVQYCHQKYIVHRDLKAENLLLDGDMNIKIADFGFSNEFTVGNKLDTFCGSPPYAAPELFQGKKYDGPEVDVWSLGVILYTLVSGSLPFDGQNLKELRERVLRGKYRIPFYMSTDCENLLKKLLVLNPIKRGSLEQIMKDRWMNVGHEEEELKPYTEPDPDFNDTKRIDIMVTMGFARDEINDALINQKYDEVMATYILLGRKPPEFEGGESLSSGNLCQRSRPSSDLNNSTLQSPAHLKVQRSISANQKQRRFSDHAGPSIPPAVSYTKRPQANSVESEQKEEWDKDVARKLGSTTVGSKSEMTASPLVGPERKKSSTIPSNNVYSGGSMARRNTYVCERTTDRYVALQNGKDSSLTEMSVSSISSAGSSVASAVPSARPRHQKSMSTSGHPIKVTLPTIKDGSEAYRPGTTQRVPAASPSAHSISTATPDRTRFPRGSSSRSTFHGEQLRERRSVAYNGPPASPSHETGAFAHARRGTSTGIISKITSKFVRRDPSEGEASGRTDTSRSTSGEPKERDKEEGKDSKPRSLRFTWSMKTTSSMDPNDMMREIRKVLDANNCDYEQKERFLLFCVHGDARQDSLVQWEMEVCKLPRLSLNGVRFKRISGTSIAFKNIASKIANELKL

NCC1CN(c2ncnc3[nH]c4cnccc4c23)CCO1 (stereo unspecified)
inhibition [1]: 2%

NC1(Cc2ccc(Cl)cc2)CCN(c2ncnc3[nH]ccc23)CC1
inhibition [2]: 0%

C[C@H](CN(C)C)Oc1nc(Nc2cc3cccc(Cl)c3cn2)cnc1C#N
inhibition [3]: 11.5%

c1nc(N2CCOCC2)c2nc[nH]c2n1
inhibition [4]: 70%

c1cnc2[nH]ccc2c1
inhibition [5]: 64% | inhibition [6]: 13.5%
